# Test results from patent US8377905B2, “Stable crystal of 1-(2′-cyano-2′-deoxy-β-D-arabinofuranosyl)cytosine monohydrochloride” (Delta-Fly Pharma, Inc., priority 2009, dated 2013).
# Legend:
# [1] = Stability test: change of crystal form by powder X-ray diffraction after storage; type: physicochemical; conditions: 30 days
# From the text: (§1) The powder X-ray diffraction data were obtained by irradiating the crystal with CuKα ray (1.541 Å) using an X-ray diffraction apparatus (trade name: PW3050, manufactured by Koninklijke Philips Electronics N.V.), and detecting the angles using a vertical goniometer. The type I and type II crystal powders were respectively spread uniformly on a glass petri dish, and an aluminum foil (or a transparent resin film, for the purpose of storage under light exposure conditions) which was appropriately perforated as vent holes therein was used as a lid, to prepare test samples. These samples were respectively stored for 30 days under four kinds of conditions such as [60° C.], [40° C./relative humidity (RH) 75%], [25° C./relative humidity (RH) 60%, light exposure 2000 lx·hr], and [25° C./relative humidity (RH) 60%, light shading], and then the samples were tested using high performance liquid chromatography (HPLC) and powder X-ray diffraction (XRD). For powder X-ray diffraction (XRD), the analysis was carried out as described above.
# [2] = Stability test: content of total analogues by HPLC after storage; type: physicochemical; conditions: for Total analogues (%), amount of increase from the initial value: 30 days vs initial; for Total analogues (%), 10 days: storage 10 days; for Total analogues (%), 18 days: storage 18 days; for Total analogues (%), 30 days: storage 30 days; for Increase in the total analogues: stability test under various conditions (humidification and exposure), 30 days
# Protocol: as §1, with “The” for “The powder X-ray diffraction data were obtained by irradiating the crystal with CuKα ray (1.541 Å) using an X-ray diffraction apparatus (trade name: PW3050, manufactured by Koninklijke Philips Electronics N.V.), and detecting the angles using a vertical goniometer. The”, “(XRD).” for “(XRD). For powder X-ray diffraction (XRD), the analysis was carried out as described above.”
# For the HPLC analysis, 22.9 mg of the sample was dissolved in 10 mL of 0.01 mol/L hydrochloric acid, and then the content of analogues in the crystal was measured under the following conditions.
# Column: Synergi Hydro-RP 80A Phenomenex (φ4.6 mm×25 cm, 4 μm); temperature 25° C.
# Mobile phase: 2.05 g of potassium dihydrogen phosphate is dissolved in 3000 mL of water, and phosphoric acid is added to the solution to adjust the pH to 3.0. The mobile phase is prepared by adding 60 mL of methanol to 2940 mL of the solution liquid.
# Flow rate: Approximately 1.0 mL/min
# Detector: Ultraviolet absorptiometer (measurement wavelength 254 nm)
# Standard Sample: • 1-(2′-cyano-2′-deoxy-β-D-arabinofuranosyl)cytosine monohydrochloride
# The term “total analogues” refers to the substances detected other than 1-(2′-cyano-2′-deoxy-β-D-arabinofuranosyl)cytosine monohydrochloride), and the term “total analogues (%)” refers to the content ratio of total analogues with respect to the standard sample.
# [3] = Patent Document 1, Non-Patent Documents 1 and 2; cited from earlier work
# [4] = test system: human or mouse tumor cells; conditions: Patent Document 1, Non-Patent Documents 1 and 2; cited from earlier work
# [5] = Heating of the crystal at 80° C. for 2 hours, crystal form by melting point and powder X-ray diffraction; type: physicochemical; conditions: heated at 80° C. for 2 hours
# [6] = 40° C./75% RH, listed as I, monohydrochloride
# [7] = 25° C./60% RH/2000 lx, listed as I, monohydrochloride
# [8] = 25° C./60% RH/Light shading, listed as I, monohydrochloride
# [9] = 60° C., listed as I, monohydrochloride
# [10] = 40° C./75% RH, listed as II, monohydrochloride
# [11] = 25° C./60% RH/2000 lx, listed as II, monohydrochloride
# [12] = 25° C./60% RH/Light shading, listed as II, monohydrochloride
# [13] = 60° C., listed as II, monohydrochloride
smiles,measurement,setting,value
"Cl.N#C[C@H]1[C@H](O)[C@@H](CO)O[C@H]1n1ccc(N)nc1=O [type I crystal, 1-(2′-cyano-2′-deoxy-β-D-arabinofuranosyl)cytosine monohydrochloride]",Change of crystal form from the initial value,[1]; 25° C./60% RH/2000 lx,No change
same,Change of crystal form from the initial value,[1]; 25° C./60% RH/Light shading,No change
same,Change of crystal form from the initial value,[1]; [6],No change
same,Change of crystal form from the initial value,[1]; 60° C.,No change
same,"Total analogues (%), amount of increase from the initial value",[2]; [7],0.06%
same,"Total analogues (%), initial",[2]; [7],0.07%
same,"Total analogues (%), 10 days",[2]; [7],0.09%
same,"Total analogues (%), 18 days",[2]; [7],0.09%
same,"Total analogues (%), 30 days",[2]; [7],0.13%
same,"Total analogues (%), amount of increase from the initial value",[2]; [8],0.00%
same,"Total analogues (%), initial",[2]; [8],0.07%
same,"Total analogues (%), 10 days",[2]; [8],0.07%
same,"Total analogues (%), 18 days",[2]; [8],0.06%
same,"Total analogues (%), 30 days",[2]; [8],0.07%
same,"Total analogues (%), amount of increase from the initial value",[2]; [6],−0.02%
same,"Total analogues (%), initial",[2]; [6],0.07%
same,"Total analogues (%), 10 days",[2]; [6],0.07%
same,"Total analogues (%), 18 days",[2]; [6],0.06%
same,"Total analogues (%), 30 days",[2]; [6],0.05%
same,"Total analogues (%), amount of increase from the initial value",[2]; [9],0.00%
same,"Total analogues (%), initial",[2]; [9],0.07%
same,"Total analogues (%), 10 days",[2]; 60° C.,0.06%
same,"Total analogues (%), 18 days",[2]; 60° C.,0.07%
same,"Total analogues (%), 30 days",[2]; 60° C.,0.07%
same,Stability of the crystal form (overall conclusion),[2]; conclusion from the stability test and crystal form conversions,superior stability as compared with the type II crystal or the type III crystal
same,Increase in the total analogues,[2],not recognized
"Cl.N#CC1C(O)[C@@H](CO)O[C@H]1n1ccc(N)nc1=O (stereo partly drawn) [type II crystal, 1-(2′-cyano-2′-deoxy-β-D-arabinofuranosyl)cytosine monohydrochloride]",Change of crystal form from the initial value,[1]; 25° C./60% RH/2000 lx,No change
same,Change of crystal form from the initial value,[1]; [10],Changed (II → I)
same,Change of crystal form from the initial value,"[1]; 40° C./75% RH, monohydrochloride",converted to the type I crystal
same,"Total analogues (%), amount of increase from the initial value",[2]; [11],0.32%
same,"Total analogues (%), initial",[2]; [11],0.06%
same,"Total analogues (%), 10 days",[2]; [11],0.15%
same,"Total analogues (%), 18 days",[2]; [11],0.23%
same,"Total analogues (%), 30 days",[2]; [11],0.38%
same,"Total analogues (%), amount of increase from the initial value",[2]; [12],0.03%
same,"Total analogues (%), initial",[2]; [12],0.06%
same,"Total analogues (%), 10 days",[2]; [12],0.06%
same,"Total analogues (%), 18 days",[2]; [12],0.07%
same,"Total analogues (%), 30 days",[2]; [12],0.09%
same,"Total analogues (%), amount of increase from the initial value",[2]; [10],0.10%
same,"Total analogues (%), initial",[2]; [10],0.06%
same,"Total analogues (%), 10 days",[2]; [10],0.06%
same,"Total analogues (%), 18 days",[2]; [10],0.08%
same,"Total analogues (%), 30 days",[2]; [10],0.16%
same,"Total analogues (%), amount of increase from the initial value",[2]; [13],0.01%
same,"Total analogues (%), initial",[2]; [13],0.06%
same,"Total analogues (%), 30 days",[2]; 60° C.,0.07%
same,Increase in the total analogues,[2],not recognized
"Cl.N#CC1C(O)[C@@H](CO)O[C@H]1n1ccc(N)nc1=O (stereo partly drawn) [compound (1), 1-(2′-cyano-2′-deoxy-β-D-arabinofuranosyl)cytosine monohydrochloride]",Anti-tumor activity in vivo,[3],excellent anti-tumor activity
same,In vitro suppressive effect for proliferation of tumor cells,[4],suppressive effect for proliferation
"Cl.N#CC1C(O)[C@@H](CO)O[C@H]1n1ccc(N)nc1=O (stereo partly drawn) [type III crystal, 1-(2′-cyano-2′-deoxy-β-D-arabinofuranosyl)cytosine monohydrochloride]",Change of crystal form on heating,[5],converted to the type I crystal
